Source: publication PMC11079024, “Identification of a family of species-selective complex I inhibitors as potential anthelmintics” (Nature Communications, 2024)
Where two headings read alike, the source gives them in different places.

How the values were obtained:
[1] = target: C. elegans (N2) complex I (NADH:ubiquinone oxidoreductase) (Caenorhabditis elegans, UniProt P24887+Q93873+Q94360); experiment: biochemical; format: biochemical
Procedure, shortened: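 Compounds were tested against freeze-thawed isolated mitochondria (0.2 mg/mL protein). NADH:decylubiquinone activity was monitored via DCIP absorbance at 600 nm, and the initial linear slope was normalised to solvent controls.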

[2] = target: B. taurus (heart) complex I (Bos taurus, UniProt P03887+P17694+P42026); experiment: biochemical; format: biochemical
Chain of B. taurus (heart) complex I (P03887 whole entry): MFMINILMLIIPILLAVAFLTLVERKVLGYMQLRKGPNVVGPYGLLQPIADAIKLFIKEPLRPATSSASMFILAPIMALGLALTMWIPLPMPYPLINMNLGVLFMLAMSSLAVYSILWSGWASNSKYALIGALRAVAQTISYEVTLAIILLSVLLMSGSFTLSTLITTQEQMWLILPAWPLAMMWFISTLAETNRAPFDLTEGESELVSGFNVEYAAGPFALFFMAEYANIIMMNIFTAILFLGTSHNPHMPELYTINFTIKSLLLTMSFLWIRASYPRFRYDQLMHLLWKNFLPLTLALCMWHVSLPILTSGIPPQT
Chain of B. taurus (heart) complex I (P17694 34-463): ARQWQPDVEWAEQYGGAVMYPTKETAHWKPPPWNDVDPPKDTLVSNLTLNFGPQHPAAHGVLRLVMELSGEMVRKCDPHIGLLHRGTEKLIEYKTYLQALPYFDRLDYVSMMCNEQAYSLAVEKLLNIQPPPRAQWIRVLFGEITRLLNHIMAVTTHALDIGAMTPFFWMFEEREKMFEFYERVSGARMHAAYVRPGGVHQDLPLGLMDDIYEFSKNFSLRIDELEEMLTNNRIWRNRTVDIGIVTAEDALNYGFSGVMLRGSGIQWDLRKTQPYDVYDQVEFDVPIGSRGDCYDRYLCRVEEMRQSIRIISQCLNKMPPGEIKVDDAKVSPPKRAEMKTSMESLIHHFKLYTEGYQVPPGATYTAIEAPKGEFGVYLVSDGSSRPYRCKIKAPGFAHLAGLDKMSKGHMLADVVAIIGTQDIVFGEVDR
Chain of B. taurus (heart) complex I (P42026 38-216): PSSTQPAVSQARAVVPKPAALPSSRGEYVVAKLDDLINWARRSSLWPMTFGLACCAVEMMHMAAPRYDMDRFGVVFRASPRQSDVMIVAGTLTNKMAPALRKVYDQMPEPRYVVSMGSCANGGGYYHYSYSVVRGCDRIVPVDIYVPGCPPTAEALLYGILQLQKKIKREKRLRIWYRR
Procedure, shortened: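 Complex I activity followed as DCIP reduction (600 nm, 30 s reads, 15 min) with 80 μM NADH and 60 μM decylubiquinone in 25 mM KPi pH 7.5 containing 2 μM antimycin A and 2 mM KCN. Freeze-thawed mouse or bovine heart mitochondria at 0.2 mg/mL; initial-rate percent of solvent control, single-point 100 μM or dose-response.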

[3] = wild-type C. elegans, individual Rep1-Rep4, read-out: percent in vitro complex I activity relative to solvent control, single replicates
[4] = wild-type C. elegans, mean of Rep1-4, read-out: percent in vitro complex I activity relative to solvent control, Mean

Chain of C. elegans (N2) complex I (NADH:ubiquinone oxidoreductase) (Q94360 17-199): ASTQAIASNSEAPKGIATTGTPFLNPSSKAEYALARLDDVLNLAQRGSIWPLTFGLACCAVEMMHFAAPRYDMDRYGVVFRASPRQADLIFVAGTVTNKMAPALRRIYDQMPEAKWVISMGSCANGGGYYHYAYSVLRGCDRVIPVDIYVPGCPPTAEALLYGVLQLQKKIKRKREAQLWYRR
Chain of C. elegans (N2) complex I (NADH:ubiquinone oxidoreductase) (P24887 whole entry): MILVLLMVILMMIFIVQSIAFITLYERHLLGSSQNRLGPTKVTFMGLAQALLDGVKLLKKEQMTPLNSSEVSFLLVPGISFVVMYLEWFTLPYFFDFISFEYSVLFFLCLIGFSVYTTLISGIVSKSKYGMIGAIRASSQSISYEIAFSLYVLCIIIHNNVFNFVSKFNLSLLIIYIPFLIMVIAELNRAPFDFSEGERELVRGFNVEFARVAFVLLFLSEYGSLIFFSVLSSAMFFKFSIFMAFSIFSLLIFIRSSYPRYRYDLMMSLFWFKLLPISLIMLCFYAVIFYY
Chain of C. elegans (N2) complex I (NADH:ubiquinone oxidoreductase) (Q93873 31-482): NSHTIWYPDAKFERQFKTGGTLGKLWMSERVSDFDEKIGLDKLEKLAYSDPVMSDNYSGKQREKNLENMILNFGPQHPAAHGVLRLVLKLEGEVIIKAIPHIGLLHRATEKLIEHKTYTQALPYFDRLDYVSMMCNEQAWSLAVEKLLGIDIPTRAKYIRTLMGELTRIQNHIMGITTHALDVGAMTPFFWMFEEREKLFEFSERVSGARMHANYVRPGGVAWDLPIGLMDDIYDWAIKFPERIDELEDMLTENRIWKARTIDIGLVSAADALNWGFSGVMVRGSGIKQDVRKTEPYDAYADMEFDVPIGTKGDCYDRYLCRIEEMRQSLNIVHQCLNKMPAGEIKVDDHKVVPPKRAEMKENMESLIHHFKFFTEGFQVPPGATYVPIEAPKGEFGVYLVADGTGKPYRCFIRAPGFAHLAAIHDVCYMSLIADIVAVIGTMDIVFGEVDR

In the case of `Cc1nc2ccccc2n1Cc1ccc(Br)cc1` [Compound 5567167], the remaining activity at 0.0001 µM [1, 3] is reported as 94%, the remaining activity at 0.0001 µM [1, 4] is reported as 85.9% and the remaining activity at 0.0005 µM [1, 3] is reported as 85.1%. It also gave a remaining activity at 0.0005 µM [1, 4] of 85.6%, a remaining activity at 0.001 µM [1, 3] of 85.9% and a remaining activity at 0.001 µM [1, 4] of 84.4%. The remaining activity at 0.0025 µM ([1]; 0.0025 µM, wild-type C. elegans, mean of Rep1-4, read-out: percent in vitro complex I activity relative to solvent control, Mean) was 79.7%, the remaining activity at 0.005 µM [1, 3] was 78% and the remaining activity at 0.005 µM [1, 4] was 79.5%. It also gave a remaining activity at 0.013 µM [1, 3] of 72.2%, a remaining activity at 0.013 µM [1, 4] of 70.5% and a remaining activity at 0.025 µM [1, 3] of 66.7%. It also gave a remaining activity at 0.025 µM [1, 4] of 62%, a remaining activity at 0.063 µM [1, 3] of 38.8% and a remaining activity at 0.063 µM [1, 4] of 36%. The remaining activity at 0.125 µM [1, 3] was 23.6%, the remaining activity at 0.125 µM [1, 4] was 23.7% and the remaining activity at 0.313 µM [1, 3] was 8.78%. The remaining activity at 0.313 µM [1, 4] was 11.9%, the remaining activity at 0.625 µM ([1]; 0.625 µM, wild-type C. elegans, mean of Rep1-4, read-out: percent in vitro complex I activity relative to solvent control, Mean) was 2.34% and the remaining activity at 1.5 µM ([1]; 1.5 µM, wild-type C. elegans, mean of Rep1-4, read-out: percent in vitro complex I activity relative to solvent control, Mean) was 0.485%. It also gave a remaining activity at 3 µM ([1]; 3 µM, wild-type C. elegans, mean of Rep1-4, read-out: percent in vitro complex I activity relative to solvent control, Mean) of 0.612%, a remaining activity at 15 µM [1, 3] of 0% and a remaining activity at 15 µM [1, 4] of 0%. For the same compound, the remaining activity at 37.5 µM [1, 3] was 0%, the remaining activity at 37.5 µM [1, 4] was 0% and the remaining activity at 75 µM ([1]; 75 µM, wild-type C. elegans, mean of Rep1-4, read-out: percent in vitro complex I activity relative to solvent control, Mean) was 0.911%. The IC50 ([1]; in vitro complex I dose response on C. elegans mitochondria, average of at least two biological replicates, fit in R (DRC), read-out: IC50 C. elegans complex I) was 32 nM, the “Log IC50 C. elegans complex I” value ([1]; log10 of IC50 in µM, C. elegans mitochondria) was -1.49 µM and the IC50 ([1]; wild-type (N2) mitochondria, read-out: C. elegans Complex I IC50) was 32 nM. It also gave an IC50 ([1]; wild-type C. elegans mitochondria, estimated from fitted dose-response curves, read-out: C. elegans Complex I IC50) of 32 nM, an IC50 ([2]; B. taurus heart mitochondria, estimated from fitted dose-response curves, read-out: B. taurus Complex I IC50) of 209 nM and an IC50 ([2]; in vitro complex I dose response on B. taurus mitochondria, average of at least two biological replicates, fit in R (DRC), read-out: IC50 B. taurus complex I) of 210 nM. For the same compound, the “Log IC50 B. taurus complex I” value ([2]; log10 of IC50 in µM, B. taurus mitochondria) was -0.68 µM.
